Experimental data reported in patent US20240238239A1, “METHODS AND COMPOSITIONS FOR PO[…] CELL THERAPIES” (Ojai Energetics PBC, priority 2016, published 2024).

Tested on: mice with spinal cord injuries
Assay: Neural stem cell treatment after spinal cord injury (BMS scores, rotarod treadmill tests)
Type: in vivo, mouse
Settings: neural stem cells pre-treated with cannabidiol 1-50 μM for 10 days plus diet supplemented with microencapsulated hemp oil composition; combined treatment
Experimental: Mouse neural stem cells expressing green fluorescent protein (GFP) under the control of a constitutive promoter are treated with either cannabidiol (1 μM, 5 μM, 10 μM or 50 μM) or vehicle control for 10 days. The cells are then transplanted directly into the spinal cords of mice with spinal cord injuries. Mice are maintained on a control diet or a diet supplemented with a microencapsulated hemp oil composition comprising cannabinoids, including cannabidiol, at concentrations similar to those used in the cell culture media. Mice are monitored daily for signs of spinal cord recovery evaluations of locomotor function based on Basso Mouse Scale (BMS) scores, a locomotor rating scale based on the frequency analyses of seven locomotor categories, and rotarod treadmill tests. Two months after the stem cell treatment the mice are sacrificed and the spinal cords are histologically examined.

`C=C(C)[C@@H]1CCC(C)=C[C@H]1c1c(O)cc(CCCCC)cc1O` [cannabidiol] was tested, and the “spinal cord recovery (locomotor function)” value was “more rapid and more robust recovery”.
